#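 In this assay, cells in 96-well plates receive the compound at five concentrations for 48 hours. Endpoints are linearly interpolated between the surrounding concentrations. GI50 marks 50% less growth. TGI: total growth inhibition.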
# Legend:
# Assay in all cases: NCI anticancer screen, dose series, 48 h
# MCF7 breast = tested on: MCF7 breast
# HCT-116 colon = tested on: HCT-116 colon
# RXF 393 renal = tested on: RXF 393 renal
# SF-295 CNS = tested on: SF-295 CNS
# OVCAR-8 ovarian = tested on: OVCAR-8 ovarian
# HOP-62 NSCLC = tested on: HOP-62 NSCLC
# SK-MEL-5 melanoma = tested on: SK-MEL-5 melanoma
# CAKI-1 renal = tested on: CAKI-1 renal
# NCI-H522 lung = tested on: NCI-H522 lung
# PC-3 prostate = tested on: PC-3 prostate
# MOLT-4 leukemia = tested on: MOLT-4 leukemia
# DU-145 prostate = tested on: DU-145 prostate
# SW-620 colon = tested on: SW-620 colon
# SK-OV-3 ovarian = tested on: SK-OV-3 ovarian
# HOP-92 NSCLC = tested on: HOP-92 NSCLC
# UACC-257 melanoma = tested on: UACC-257 melanoma
# NCI-H460 lung = tested on: NCI-H460 lung
# A498 renal = tested on: A498 renal
# CCRF-CEM leukemia = tested on: CCRF-CEM leukemia
# OVCAR-3 ovarian = tested on: OVCAR-3 ovarian
# T-47D breast = tested on: T-47D breast
# HL-60(TB) leukemia = tested on: HL-60(TB) leukemia
# SN12C renal = tested on: SN12C renal
# A549 NSCLC = tested on: A549 NSCLC
# SF-268 CNS = tested on: SF-268 CNS
# TK-10 renal = tested on: TK-10 renal
# SNB-75 CNS = tested on: SNB-75 CNS
# SK-MEL-28 melanoma = tested on: SK-MEL-28 melanoma
# OVCAR-5 ovarian = tested on: OVCAR-5 ovarian
# K-562 leukemia = tested on: K-562 leukemia
# SF-539 CNS = tested on: SF-539 CNS
# MDA-MB-231 breast = tested on: MDA-MB-231 breast
# M14 melanoma = tested on: M14 melanoma
# ACHN renal = tested on: ACHN renal
# KM12 colon = tested on: KM12 colon
# HCT-15 colon = tested on: HCT-15 colon
# UO-31 renal = tested on: UO-31 renal
# HT29 colon = tested on: HT29 colon
# SR leukemia = tested on: SR leukemia
# NCI/ADR-RES ovarian = tested on: NCI/ADR-RES ovarian
# NCI-H226 lung = tested on: NCI-H226 lung
# SK-MEL-2 melanoma = tested on: SK-MEL-2 melanoma
# 786-0 renal = tested on: 786-0 renal
# COLO 205 colon = tested on: COLO 205 colon
# NCI-H23 lung = tested on: NCI-H23 lung
# RPMI-8226 leukemia = tested on: RPMI-8226 leukemia
# MALME-3M melanoma = tested on: MALME-3M melanoma
smiles,measurement,setting,value
NCC(=O)Nc1ccc(-n2nc(C(F)(F)F)cc2-c2ccc3c(ccc4ccccc43)c2)cc1,GI50,MCF7 breast,578 nM
same,TGI,MCF7 breast,2060 nM
same,GI50,HCT-116 colon,761 nM
same,TGI,HCT-116 colon,2000 nM
same,GI50,RXF 393 renal,1380 nM
same,TGI,RXF 393 renal,2750 nM
same,GI50,SF-295 CNS,1160 nM
same,TGI,SF-295 CNS,2600 nM
same,GI50,OVCAR-8 ovarian,929 nM
same,TGI,OVCAR-8 ovarian,3150 nM
same,GI50,HOP-62 NSCLC,1320 nM
same,TGI,HOP-62 NSCLC,2740 nM
same,GI50,SK-MEL-5 melanoma,1250 nM
same,TGI,SK-MEL-5 melanoma,2560 nM
same,GI50,CAKI-1 renal,1170 nM
same,TGI,CAKI-1 renal,2660 nM
same,GI50,NCI-H522 lung,1320 nM
same,TGI,NCI-H522 lung,2710 nM
same,GI50,PC-3 prostate,1240 nM
same,TGI,PC-3 prostate,2660 nM
same,GI50,MOLT-4 leukemia,809 nM
same,TGI,MOLT-4 leukemia,4010 nM
same,GI50,DU-145 prostate,1320 nM
same,TGI,DU-145 prostate,2620 nM
same,GI50,SW-620 colon,835 nM
same,TGI,SW-620 colon,2160 nM
same,GI50,SK-OV-3 ovarian,1270 nM
same,TGI,SK-OV-3 ovarian,2540 nM
same,GI50,HOP-92 NSCLC,1270 nM
same,TGI,HOP-92 NSCLC,2650 nM
same,GI50,UACC-257 melanoma,1660 nM
same,TGI,UACC-257 melanoma,3310 nM
same,GI50,NCI-H460 lung,307 nM
same,TGI,NCI-H460 lung,1740 nM
same,GI50,A498 renal,1860 nM
same,TGI,A498 renal,3840 nM
same,GI50,CCRF-CEM leukemia,746 nM
same,TGI,CCRF-CEM leukemia,4160 nM
same,GI50,OVCAR-3 ovarian,1340 nM
same,TGI,OVCAR-3 ovarian,2650 nM
same,GI50,T-47D breast,1620 nM
same,TGI,T-47D breast,3000 nM
same,GI50,HL-60(TB) leukemia,1300 nM
same,TGI,HL-60(TB) leukemia,3420 nM
same,GI50,SN12C renal,1650 nM
same,TGI,SN12C renal,3400 nM
same,GI50,A549 NSCLC,959 nM
same,TGI,A549 NSCLC,2410 nM
same,GI50,SF-268 CNS,1130 nM
same,TGI,SF-268 CNS,2750 nM
same,GI50,TK-10 renal,1490 nM
same,TGI,TK-10 renal,2870 nM
same,GI50,SNB-75 CNS,1260 nM
same,TGI,SNB-75 CNS,2790 nM
same,GI50,SK-MEL-28 melanoma,1450 nM
same,TGI,SK-MEL-28 melanoma,2810 nM
same,GI50,OVCAR-5 ovarian,1560 nM
same,TGI,OVCAR-5 ovarian,2950 nM
same,GI50,K-562 leukemia,472 nM
same,TGI,K-562 leukemia,3380 nM
same,GI50,SF-539 CNS,1060 nM
same,TGI,SF-539 CNS,2410 nM
same,GI50,MDA-MB-231 breast,1350 nM
same,TGI,MDA-MB-231 breast,2870 nM
same,GI50,M14 melanoma,1610 nM
same,TGI,M14 melanoma,3240 nM
same,GI50,ACHN renal,1230 nM
same,TGI,ACHN renal,2540 nM
same,GI50,KM12 colon,922 nM
same,TGI,KM12 colon,2180 nM
same,GI50,HCT-15 colon,142 nM
same,TGI,HCT-15 colon,1710 nM
same,GI50,UO-31 renal,1320 nM
same,TGI,UO-31 renal,2610 nM
same,GI50,HT29 colon,937 nM
same,TGI,HT29 colon,2270 nM
same,GI50,SR leukemia,342 nM
same,TGI,SR leukemia,2350 nM
same,GI50,NCI/ADR-RES ovarian,1120 nM
same,TGI,NCI/ADR-RES ovarian,3120 nM
same,GI50,NCI-H226 lung,2150 nM
same,TGI,NCI-H226 lung,6350 nM
same,GI50,SK-MEL-2 melanoma,1820 nM
same,TGI,SK-MEL-2 melanoma,3480 nM
same,GI50,786-0 renal,1470 nM
same,TGI,786-0 renal,3060 nM
same,GI50,COLO 205 colon,1360 nM
same,TGI,COLO 205 colon,2890 nM
same,GI50,NCI-H23 lung,1780 nM
same,TGI,NCI-H23 lung,3750 nM
same,GI50,RPMI-8226 leukemia,1290 nM
same,TGI,RPMI-8226 leukemia,4080 nM
same,GI50,MALME-3M melanoma,1830 nM
same,TGI,MALME-3M melanoma,3510 nM
